In ChEMBL document CHEMBL4665642, “Anticancer profile of newly synthesized BRAF inhibitors possess 5-(pyrimidin-4-yl)imidazo[2,1-b]thiazole scaffold” (Bioorg Med Chem, 2019):

How the values were obtained:
Assay type in all cases: functional
Details in all cases: read-out: Activity
[1] = system: ACHN; test: Cytotoxicity against human ACHN cells assessed as cell viability at 10 uM incubated for 48 hrs by sulforhodamine B assay relative to control
[2] = system: MDA-MB-435; test: Cytotoxicity against human MDA-MB-435 cells assessed as cell viability at 10 uM incubated for 48 hrs by sulforhodamine B assay relative to control
[3] = system: SNB-75; test: Cytotoxicity against human SNB-75 cells assessed as cell viability at 10 uM incubated for 48 hrs by sulforhodamine B assay relative to control
[4] = system: NCI-H522; test: Cytotoxicity against human NCI-H522 cells assessed as cell viability at 10 uM incubated for 48 hrs by sulforhodamine B assay relative to control
[5] = system: TK-10; test: Cytotoxicity against human TK-10 cells assessed as cell viability at 10 uM incubated for 48 hrs by sulforhodamine B assay relative to control
[6] = system: COLO 205; test: Cytotoxicity against human COLO 205 cells assessed as cell viability at 10 uM incubated for 48 hrs by sulforhodamine B assay relative to control
[7] = system: NCI-H460; test: Cytotoxicity against human NCI-H460 cells assessed as cell viability at 10 uM incubated for 48 hrs by sulforhodamine B assay relative to control
[8] = system: SW-620; test: Cytotoxicity against human SW-620 cells assessed as cell viability at 10 uM incubated for 48 hrs by sulforhodamine B assay relative to control
[9] = system: NCI-H23; test: Cytotoxicity against human NCI-H23 cells assessed as cell viability at 10 uM incubated for 48 hrs by sulforhodamine B assay relative to control
[10] = system: NCI-H226; test: Cytotoxicity against human NCI-H226 cells assessed as cell viability at 10 uM incubated for 48 hrs by sulforhodamine B assay relative to control
[11] = system: SK-OV-3; test: Cytotoxicity against human SK-OV-3 cells assessed as cell viability at 10 uM incubated for 48 hrs by sulforhodamine B assay relative to control
[12] = system: SN12C; test: Cytotoxicity against human SN12C cells assessed as cell viability at 10 uM incubated for 48 hrs by sulforhodamine B assay relative to control
[13] = system: Hs-578T; test: Cytotoxicity against human HS-578T cells assessed as cell viability at 10 uM incubated for 48 hrs by sulforhodamine B assay relative to control
[14] = system: RXF 393; test: Cytotoxicity against human RXF 393 cells assessed as cell viability at 10 uM incubated for 48 hrs by sulforhodamine B assay relative to control
[15] = system: DU-145; test: Cytotoxicity against human DU-145 cells assessed as cell viability at 10 uM incubated for 48 hrs by sulforhodamine B assay relative to control
[16] = system: OVCAR-3; test: Cytotoxicity against human OVCAR-3 cells assessed as cell viability at 10 uM incubated for 48 hrs by sulforhodamine B assay relative to control
[17] = system: SK-MEL-28; test: Cytotoxicity against human SK-MEL-28 cells assessed as cell viability at 10 uM incubated for 48 hrs by sulforhodamine B assay relative to control
[18] = system: SF-268; test: Cytotoxicity against human SF-268 cells assessed as cell viability at 10 uM incubated for 48 hrs by sulforhodamine B assay relative to control
[19] = system: HCT-29; test: Cytotoxicity against human […] cells assessed as cell viability at 10 uM incubated for 48 hrs by sulforhodamine B assay relative to control
[20] = system: CCRF-CEM; test: Cytotoxicity against human CCRF-CEM cells assessed as cell viability at 10 uM incubated for 48 hrs by sulforhodamine B assay relative to control
[21] = system: BT-549; test: Cytotoxicity against human BT-549 cells assessed as cell viability at 10 uM incubated for 48 hrs by sulforhodamine B assay relative to control
[22] = system: 786-0; test: Cytotoxicity against human 786-0 cells assessed as cell viability at 10 uM incubated for 48 hrs by sulforhodamine B assay relative to control
[23] = system: LOX IMVI; test: Cytotoxicity against human LOX IMVI cells assessed as cell viability at 10 uM incubated for 48 hrs by sulforhodamine B assay relative to control
[24] = system: SR; test: Cytotoxicity against human SR cells assessed as cell viability at 10 uM incubated for 48 hrs by sulforhodamine B assay relative to control
[25] = system: SF-295; test: Cytotoxicity against human SF-295 cells assessed as cell viability at 10 uM incubated for 48 hrs by sulforhodamine B assay relative to control
[26] = system: CAKI-1; test: Cytotoxicity against human CAKI-1 cells assessed as cell viability at 10 uM incubated for 48 hrs by sulforhodamine B assay relative to control
[27] = system: HCT-15; test: Cytotoxicity against human HCT-15 cells assessed as cell viability at 10 uM incubated for 48 hrs by sulforhodamine B assay relative to control
[28] = system: MDA-MB-231; test: Cytotoxicity against human MDA-MB-231 cells assessed as cell viability at 10 uM incubated for 48 hrs by sulforhodamine B assay relative to control
[29] = system: Malme-3M; test: Cytotoxicity against human Malme-3M cells assessed as cell viability at 10 uM incubated for 48 hrs by sulforhodamine B assay relative to control
[30] = system: M14; test: Cytotoxicity against human M14 cells assessed as cell viability at 10 uM incubated for 48 hrs by sulforhodamine B assay relative to control
[31] = system: KM12; test: Cytotoxicity against human KM12 cells assessed as cell viability at 10 uM incubated for 48 hrs by sulforhodamine B assay relative to control
[32] = system: NCI/ADR-RES; test: Cytotoxicity against human NCI/ADR-RES cells assessed as cell viability at 10 uM incubated for 48 hrs by sulforhodamine B assay relative to control
[33] = system: UACC-62; test: Cytotoxicity against human UACC-62 cells assessed as cell viability at 10 uM incubated for 48 hrs by sulforhodamine B assay relative to control
[34] = system: OVCAR-8; test: Cytotoxicity against human OVCAR-8 cells assessed as cell viability at 10 uM incubated for 48 hrs by sulforhodamine B assay relative to control
[35] = system: U-251; test: Cytotoxicity against human U-251 cells assessed as cell viability at 10 uM incubated for 48 hrs by sulforhodamine B assay relative to control
[36] = system: NCI-H322M; test: Cytotoxicity against human NCI-H322M cells assessed as cell viability at 10 uM incubated for 48 hrs by sulforhodamine B assay relative to control
[37] = system: MDA-MB-468; test: Cytotoxicity against human MDA-MB-468 cells assessed as cell viability at 10 uM incubated for 48 hrs by sulforhodamine B assay relative to control
[38] = system: HOP-92; test: Cytotoxicity against human HOP-92 cells assessed as cell viability at 10 uM incubated for 48 hrs by sulforhodamine B assay relative to control
[39] = system: HCT-116; test: Cytotoxicity against human HCT-116 cells assessed as cell viability at 10 uM incubated for 48 hrs by sulforhodamine B assay relative to control
[40] = system: UACC-257; test: Cytotoxicity against human UACC-257 cells assessed as cell viability at 10 uM incubated for 48 hrs by sulforhodamine B assay relative to control

Row | Compound | viability at 10 µM [1] | viability at 10 µM [2] | viability at 10 µM [3] | viability at 10 µM [4] | viability at 10 µM [5] | viability at 10 µM [6] | viability at 10 µM [7] | viability at 10 µM [8] | viability at 10 µM [9] | viability at 10 µM [10] | viability at 10 µM [11] | viability at 10 µM [12] | viability at 10 µM [13] | viability at 10 µM [14] | viability at 10 µM [15] | viability at 10 µM [16] | viability at 10 µM [17] | viability at 10 µM [18] | viability at 10 µM [19] | viability at 10 µM [20] | also measured
1 | O=S(=O)(NCCNc1nccc(-c2c(-c3cccc(F)c3)nc3sccn23)n1)c1ccc(Br)cc1 | 30.2% | 21.3% | 75.3% | 62.6% | 68.8% | 36.4% | 27.8% | 54.8% | 72.6% | 41.2% | 77.3% | 42.9% | 63.6% | 72.7% | 52.5% | 62.4% | 69.1% | 53% | 28.2% | 51% | viability at 10 µM [21]: 63.2%; viability at 10 µM [22]: 50.6%; viability at 10 µM [23]: 38.5%; viability at 10 µM [24]: 31.7%; viability at 10 µM [25]: 58.7%; viability at 10 µM [26]: 35.1%; viability at 10 µM [27]: 29.2%; viability at 10 µM [28]: 69.7%; viability at 10 µM [29]: 71.1%; viability at 10 µM [30]: 52.3%; viability at 10 µM [31]: 42.5%; viability at 10 µM [32]: 61.8%; viability at 10 µM [33]: 35.8%; viability at 10 µM [34]: 45.5%; viability at 10 µM [35]: 53.4%; viability at 10 µM [36]: 61%; viability at 10 µM [37]: 78.3%; viability at 10 µM [38]: 76.7%; viability at 10 µM [39]: 33.9%; viability at 10 µM [40]: 82%
2 | O=S(=O)(NCCNc1nccc(-c2c(-c3cccc(F)c3)nc3sccn23)n1)c1ccc(F)cc1 | 35.8% | 31.5% | 67.7% | 67% | 80.4% | 39.5% | 35% | 63% | 79.3% | 45.6% | 79.9% | 49.2% | 68% | 68.9% | 52.4% | 67.2% | 81.1% | 53.8% | 28.7% | 54.7% | viability at 10 µM [21]: 78.6%; viability at 10 µM [22]: 58.7%; viability at 10 µM [23]: 42.8%; viability at 10 µM [24]: 38%; viability at 10 µM [25]: 67.5%; viability at 10 µM [26]: 41.3%; viability at 10 µM [27]: 32.2%; viability at 10 µM [28]: 76.6%; viability at 10 µM [29]: 81.1%; viability at 10 µM [30]: 67.8%; viability at 10 µM [31]: 40.1%; viability at 10 µM [32]: 66.7%; viability at 10 µM [33]: 44.4%; viability at 10 µM [34]: 47.3%; viability at 10 µM [35]: 58.4%; viability at 10 µM [36]: 64%; viability at 10 µM [37]: 63.1%; viability at 10 µM [38]: 84.8%; viability at 10 µM [39]: 40%; viability at 10 µM [40]: 79.1%
3 | O=S(=O)(NCCCNc1nccc(-c2c(-c3cccc(F)c3)nc3sccn23)n1)c1ccc(F)cc1 | 64.2% | 50.4% | 98.5% | 54% | 99.7% | 43.7% | 87.8% | 106% | 83.7% | 56.2% | 81.6% | 71.5% | 90.1% | 85% | 84.5% | 83.5% | 96.9% | 73.9% | 46.2% | 53.7% | viability at 10 µM [21]: 79.9%; viability at 10 µM [22]: 73.6%; viability at 10 µM [23]: 56%; viability at 10 µM [24]: 95.8%; viability at 10 µM [25]: 92.7%; viability at 10 µM [26]: 57.8%; viability at 10 µM [27]: 44.5%; viability at 10 µM [28]: 94.2%; viability at 10 µM [29]: 102%; viability at 10 µM [30]: 59.4%; viability at 10 µM [31]: 62.7%; viability at 10 µM [32]: 60%; viability at 10 µM [33]: 35.4%; viability at 10 µM [34]: 49.8%; viability at 10 µM [35]: 90.6%; viability at 10 µM [36]: 100%; viability at 10 µM [37]: 77.4%; viability at 10 µM [38]: 102%; viability at 10 µM [39]: 59.4%; viability at 10 µM [40]: 112%
